Test results reported in patent US20070026026A1 (priority 2005, published 2007).

What was measured:
[1] = Another study (not described): PG and PEG 400 effect on stability of losartan potassium; assay type: physicochemical
Description: Therefore, in one embodiment PG is preferred over PEG 400.

[2] = Example 2.3 stability of saccharin-containing compositions at 50° C. (HPLC); assay type: physicochemical; conditions: for stability of losartan (percent active): saccharin sodium, 50° C.
Method: Two different concentrations of glycerin (30 percent and 40 percent by volume) and 2 different pHs of the phosphate buffer (7.4 and 8.2) were studied. Four different compositions that contained saccharin were prepared and analyzed. The materials used were losartan potassium; saccharin sodium; propylene glycol (PG); glycerin; and potassium phosphate buffer (PPB) prepared in-house. […] Three mL of PG were then added to the vortexed mixture, (17-X) mL of glycerin added, and this mixture vortexed for 2 minutes. X represents the amount in mL of PPB added to provide 17 mL. Each sample was then stored at 50° C. and evaluated by HPLC periodically.

[3] = cited from earlier work
[4] = Example 2.1 stability of losartan potassium in phosphate buffers at 50° C. (HPLC); assay type: physicochemical; conditions: for stability (percent active on a weight basis): 50° C.; for degradation of the original losartan: pH 7.4
Method: The three variables were the pH of the buffer, cation of the buffer, and concentration of the phosphate salt in the buffer. The pHs studied were 7.4 and 8.2; the cations studied were potassium and sodium; and the concentrations studied were 10 mM and 100 mM.
The materials used were sodium phosphate buffer (SPB) and potassium phosphate buffer (PPB) prepared in-house and losartan potassium. […] A sample of each solution was taken and analyzed by HPLC. The different solutions were then stored at 50° C. […] The stability (measured as percent active on a weight

[5] = Example 2.2 B stability with PG and glycerin or PG and PEG 400 at 50° C. (HPLC); assay type: physicochemical; conditions: for degradation: after 816 hours at 50° C.
Method: X represents the amount in mL of SPB added to provide 8.5 mL. […] Five different formulations were prepared and analyzed. Each sample was evaluated by HPLC. The samples were then stored at 50° C. for about 1 month and analyzed periodically.

[6] = Example 2.2 C stability with PG, glycerin and xylitol at 50° C. (HPLC); assay type: physicochemical; conditions: after about 1 month at 50° C.
Method: Even with 30 percent glycerin present, in some embodiments it is desired to add additional sweetener as the composition may not be sweet enough for some patients. Accordingly, a stronger sweetener was considered for use in the composition. […] Thus, the stability of a composition of propylene glycol (PG), glycerin, and xylitol was studied and evaluated. […] PG (1.5 mL) was then added, this mixture was vortexed for 1 minute, 3 mL of glycerin was added, and this mixture was finally vortexed for 1 minute. […] Four different formulations were prepared and analyzed. Each sample was evaluated by HPLC. The samples were then stored at 50° C. for about 1 month and analyzed periodically.

[7] = Example 2.2 A stability of losartan potassium in SPB with propylene glycol at 50° C. (HPLC); assay type: physicochemical; conditions: for degradation: after more than 1 month (816 hours) at 50° C.
Method: X represents the amount in mL of SPB added to provide 10 mL. […] Each formulation was evaluated by HPLC. The samples were then stored at 50° C. for about 1 month and analyzed periodically.

[8] = Example 1.2 solubility of losartan potassium in sodium phosphate buffers by HPLC; assay type: physicochemical; conditions: for solubility at 0 h / solubility at 48 h / solubility at 480 h: sodium phosphate buffer, aqueous buffer, thermodynamic from solid, room temperature, HPLC
Description: The materials used were sodium phosphate buffer (SPB) prepared in-house and losartan potassium. […] A sample of each solution was then taken and analyzed by HPLC. […] Each sample was stored at room temperature and data was collected as a function of time.

[9] = Example 1.1 solubility of losartan potassium with and without buffering agent (visual); assay type: physicochemical; conditions: for solubility: thermodynamic from solid, visual
Method: After 24 hours, the samples were examined. […] Formulations at these pHs of about 7 or greater should prevent precipitation of the drug.

## CCCCc1nc(Cl)c(CO)n1Cc1ccc(-c2ccccc2-c2nnn[nH]2)cc1.[K] [losartan potassium, 2-butyl-4-chloro-1-[p-(o-1H-tetrazol-5-ylphenyl)benzyl]imidazole-5-methanol monopotassium salt]
[1]; in SPB
  effect of PEG 400 on stability: improve the stability
  effect of PG on stability: improve the stability
[1]; in water
  effect of PEG 400 on stability: did not improve the stability
[2]; 30% glycerin, PPB pH = 7.4, PG, 0 hour
  stability of losartan (percent active): 99.88%
[2]; 30% glycerin, PPB pH = 7.4, PG, 72 hours
  stability of losartan (percent active): 99.91%
[2]; 30% glycerin, PPB pH = 7.4, PG, 288 hours
  stability of losartan (percent active): 99.88%
[2]; 30% glycerin, PPB pH = 7.4, PG, 1152 hours
  stability of losartan (percent active): 99.65%
[2]; 30% glycerin, PPB pH = 8.2, PG, 0 hour
  stability of losartan (percent active): 99.88%
[2]; 30% glycerin, PPB pH = 8.2, PG, 72 hours
  stability of losartan (percent active): 99.88%
[2]; 30% glycerin, PPB pH = 8.2, PG, 288 hours
  stability of losartan (percent active): 99.89%
[2]; 30% glycerin, PPB pH = 8.2, PG, 1152 hours
  stability of losartan (percent active): 99.86%
[2]; 40% glycerin, PPB pH = 7.4, PG, 0 hour
  stability of losartan (percent active): 99.88%
[2]; 40% glycerin, PPB pH = 7.4, PG, 72 hours
  stability of losartan (percent active): 99.88%
[2]; 40% glycerin, PPB pH = 7.4, PG, 288 hours
  stability of losartan (percent active): 99.88%
[2]; 40% glycerin, PPB pH = 7.4, PG, 1152 hours
  stability of losartan (percent active): 99.73%
[2]; 40% glycerin, PPB pH = 8.2, PG, 0 hour
  stability of losartan (percent active): 99.88%
[2]; 40% glycerin, PPB pH = 8.2, PG, 72 hours
  stability of losartan (percent active): 99.88%
[2]; 40% glycerin, PPB pH = 8.2, PG, 288 hours
  stability of losartan (percent active): 99.92%
[2]; 40% glycerin, PPB pH = 8.2, PG, 1152 hours
  stability of losartan (percent active): 99.82%
[2]; saccharin-containing compositions, after 12 days (288 hours) and even at 1152 hours at 50° C.
  degradation in words: Minimal degradation
[3]
  solubility in alcohols: soluble
  solubility in chloroform: practically insoluble
  solubility in common organic solvents, such as acetonitrile and methylethyl ketone: slightly soluble
  solubility in water: freely soluble
[4]; PPB, 10 mM, pH = 7.4, 0 hours
  stability (percent active on a weight basis): 99.93%
[4]; PPB, 10 mM, pH = 7.4, 24 hours
  stability (percent active on a weight basis): 99.90%
[4]; PPB, 10 mM, pH = 7.4, 264 hours
  stability (percent active on a weight basis): 99.14%
[4]; PPB, 10 mM, pH = 7.4, 672 hours
  stability (percent active on a weight basis): 98.74%
[4]; PPB, 100 mM, pH = 7.4, 0 hours
  stability (percent active on a weight basis): 99.93%
[4]; PPB, 100 mM, pH = 7.4, 24 hours
  stability (percent active on a weight basis): 99.90%
[4]; PPB, 100 mM, pH = 7.4, 264 hours
  stability (percent active on a weight basis): 99.32%
[4]; PPB, 100 mM, pH = 7.4, 672 hours
  stability (percent active on a weight basis): 98.84%
[4]; SPB 10 mM, after about 1 month at 50° C.
  degradation of the original losartan: around 1.5%
[4]; SPB 100 mM, after about 1 month at 50° C.
  degradation of the original losartan: about 1%
[4]; SPB, 10 mM, pH = 7.4, 0 hours
  stability (percent active on a weight basis): 99.96%
[4]; SPB, 10 mM, pH = 7.4, 24 hours
  stability (percent active on a weight basis): 99.90%
[4]; SPB, 10 mM, pH = 7.4, 264 hours
  stability (percent active on a weight basis): 99.12%
[4]; SPB, 10 mM, pH = 7.4, 672 hours
  stability (percent active on a weight basis): 98.49%
[4]; SPB, 10 mM, pH = 8.2, 0 hours
  stability (percent active on a weight basis): 99.93%
[4]; SPB, 10 mM, pH = 8.2, 24 hours
  stability (percent active on a weight basis): 99.91%
[4]; SPB, 10 mM, pH = 8.2, 264 hours
  stability (percent active on a weight basis): 99.68%
[4]; SPB, 10 mM, pH = 8.2, 672 hours
  stability (percent active on a weight basis): 99.59%
[4]; SPB, 100 mM, pH = 7.4, 0 hours
  stability (percent active on a weight basis): 99.93%
[4]; SPB, 100 mM, pH = 7.4, 24 hours
  stability (percent active on a weight basis): 99.90%
[4]; SPB, 100 mM, pH = 7.4, 264 hours
  stability (percent active on a weight basis): 99.34%
[4]; SPB, 100 mM, pH = 7.4, 672 hours
  stability (percent active on a weight basis): 98.90%
[4]; SPB, 100 mM, pH = 8.2, 0 hours
  stability (percent active on a weight basis): 99.93%
[4]; SPB, 100 mM, pH = 8.2, 24 hours
  stability (percent active on a weight basis): 99.91%
[4]; SPB, 100 mM, pH = 8.2, 264 hours
  stability (percent active on a weight basis): 99.77%
[4]; SPB, 100 mM, pH = 8.2, 672 hours
  stability (percent active on a weight basis): 99.66%
[4]; SPB, pH of 8.2, after about 1 month at 50° C.
  degradation: about 0.4%
[5]; SPB with 15 percent PG and 10 percent PEG 400
  degradation: 0.33%
[5]; SPB with 15 percent PG and up to 30 percent glycerin
  degradation: less than 0.5%
[5]; increasing PEG 400 to 30 percent in the composition, 50° C.
  effect on stability in words: decreased the stability
[6]; 5 mg/mL, 1 percent xylitol
  degradation: about 0.45%
[6]; 5 mg/mL, 2 percent xylitol
  degradation: about 0.5%
[6]; 25 mg/mL, 1 percent xylitol
  degradation: approximately 0.7%
[6]; 25 mg/mL, 2 percent xylitol
  degradation: approximately 0.7%
[7]; 10 percent PG in SPB pH 7.2
  degradation: less than 0.4%
[7]; 15 percent PG in SPB pH 7.2
  degradation: less than 0.4%
[7]; 30 percent PG in SPB pH 7.2, 50° C.
  stability in words: unexpectedly good
[8]; SPB pH of 6.2
  precipitation on storage: some re-precipitation was observed
[8]; pH under 6.2
  solubility in words: practically insoluble
[8]; pHs of 7.4 and higher
  precipitation on storage: no precipitation was observed
[8]; SPB pH = 1.7
  solubility at 0 h: 1070 µg/mL
  solubility at 48 h: 152 µg/mL
  solubility at 480 h: 30 µg/mL
[8]; SPB pH = 6.2
  solubility at 0 h: 1620 µg/mL
  solubility at 48 h: 1650 µg/mL
  solubility at 480 h: 60 µg/mL
[8]; SPB pH = 7.4
  solubility at 0 h: > 250000 µg/mL
  solubility at 48 h: > 250000 µg/mL
  solubility at 480 h: > 250000 µg/mL
[8]; SPB pH = 8.2
  solubility at 0 h: > 250000 µg/mL
  solubility at 48 h: > 250000 µg/mL
  solubility at 480 h: > 250000 µg/mL
[9]; SPB pH 6.2, stored at 50° C. overnight, examined after 24 hours
  crystals after storage of the solubility sample: crystals were observed
[9]; organic solvent or mixture, Ethanol
  solubility: 130 mg/mL
[9]; sodium phosphate buffer, aqueous buffer, SPB 10 mM, pH 1.9
  solubility: 0.048 mg/mL
[9]; sodium phosphate buffer, aqueous buffer, SPB 10 mM, pH 6.2
  solubility: > 241 mg/mL
[9]; sodium phosphate buffer, aqueous buffer, SPB 10 mM, pH 7.2
  solubility: 300 mg/mL
[9]; sodium phosphate buffer, aqueous buffer, SPB 10 mM, pH 8.2
  solubility: > 253 mg/mL
[9]; Water, pH 5.5
  solubility: > 243 mg/mL
[9]; water with HCl, aqueous buffer, Water + HCl, pH 2.1
  solubility: 0.28 mg/mL
[9]; water with NaOH, aqueous buffer, Water + NaOH, pH 11.8
  solubility: > 239 mg/mL
